Results taken from the SangsterLogP compilation.

Key:
[1] = method code SF-GLC, from DOI: 10.1021/es00171a006
[2] = not given; remark: listed apart in the source
[3] = method code SF-AS, from DOI: 10.1007/s00044-012-0399-x
[4] = method code SF-RC,AS, from DOI: 10.1021/es60170a013; conditions: pH 8.7
[5] = method code SF-RC, from DOI: 10.1023/a:1015825912542, PMID: 1808606; conditions: pH 7.2
[6] = method code SF, from DOI: 10.1055/s-0038-1624171, PMID: 6548017; conditions: pH 7.4
[7] = method code …, from Pirumyan, G.; Martiryan, A.; Skurlator, Yu.; Petrosyan, D.; Akhnazaryan, A.; Arutyunyan, V. (1988). Transformations of pyrazolone compounds for fish farming in aqueous medium. Chemical Journal of …
[8] = not given; remark: listed apart in the source
[9] = method code SF-HPLC, from DOI: 10.1002/jps.2600841008, PMID: 8801331; conditions: pH 3.1
[10] = method code SF-AS, from DOI: 10.1016/0223-5234(96)88239-0; conditions: pH 2.0
[11] = not given; remark: listed apart in the source
[12] = method code SF, from DOI: 10.1177/1087057110396372, PMID: 21343602; conditions: pH 7.4
[13] = not given; remark: listed apart in the source
[14] = method code SF-AS, from DOI: 10.1021/jf60177a051
[15] = method code SF-HPLC, from DOI: 10.1002/jps.10112, PMID: 12115830; conditions: pH 7.4
[16] = not given; remark: listed apart in the source
[17] = method code SF-AS, from PMID: 1705424; conditions: pH 7.4
[18] = method code SF-RC, from DOI: 10.1016/s0969-8051(00)00080-9, PMID: 10832080; conditions: pH 13.0
[19] = not given; remark: listed apart in the source
[20] = method code SF-TN, from DOI: 10.1002/ardp.19763091008, PMID: 1008678
[21] = method code SF-HPLC, from DOI: 10.1016/s0223-5234(97)84356-5
[22] = method code SF, from DOI: 10.1016/s0968-0896(00)00025-0, PMID: 10882003
[23] = method code SF-HPLC, from DOI: 10.1016/s0928-0987(98)00030-x, PMID: 9845810; conditions: pH 7.4
[24] = method code SF-AS, from DOI: 10.1021/js960328j, PMID: 9050798; conditions: pH 6.6
[25] = method code SF-HPLC, from DOI: 10.1016/0006-2952(84)90322-8, PMID: 6704182
[26] = not given; remark: listed apart in the source
[27] = method code SF-GLC, from DOI: 10.1016/j.chemosphere.2013.04.065, PMID: 23732011
[28] = method code SF-AS, from DOI: 10.1016/s0021-9673(03)00617-4, PMID: 12830921
[29] = not given; remark: listed apart in the source
[30] = method code SF-AS, from DOI: 10.1002/jps.2600620542, PMID: 4705706
[31] = not given; remark: listed apart in the source
[32] = not given; remark: listed apart in the source
[33] = not given; remark: listed apart in the source
[34] = method code SF-AS, from PMID: 301777
[35] = method code SF-GLC, from DOI: 10.1016/s0021-9673(00)81319-9
[36] = method code SF-RC, from DOI: 10.1248/cpb.39.104, PMID: 2049793; conditions: pH 7.4
[37] = method code SF-HPLC, from DOI: 10.3109/03639045.2012.690417, PMID: 22670797
[38] = method code SF-RC, from DOI: 10.1111/j.1399-3054.1990.tb08712.x
[39] = method code G-GLC, from DOI: 10.1021/es00169a004
[40] = method code SF-HPLC, from DOI: 10.1021/js970451q, PMID: 9687340; conditions: pH 6.0
[41] = not given; remark: listed apart in the source
[42] = method code SF-RC, from PMID: 3382460; conditions: pH 7.0
[43] = not given; remark: listed apart in the source
[44] = method code SF-AS, from DOI: 10.1007/s001280000002, PMID: 10757653
[45] = not given; remark: listed apart in the source
[46] = method code SF-EPR, from DOI: 10.1007/bf01870789, PMID: 2549250; conditions: pH 12.0
[47] = method code SF-AS, from DOI: 10.1016/s0006-2952(02)01074-2, PMID: 12392818; conditions: pH 7.4
[48] = method code SF-AS, from DOI: 10.1016/s0090-9556(25)07961-9, PMID: 6130927; conditions: pH 12.0

## Clc1cc(Cl)c2c(c1Cl)Oc1ccccc1O2
[1]
  logP: 5.57

## C=CC(=O)OCC(CC)CCCC (centres undefined)
other
  logP: 4.29

## O=S(c1cc(Cl)cc(Cl)c1O)c1cc(Cl)cc(Cl)c1O
[2]
  logP: 4.13

## COC(=O)CN1Cc2ccccc2C1
[3]
  logP: -0.03

## Nc1ccc(-c2ccc(N)c(Cl)c2)cc1Cl
[4]
  logD: 3.51

## CC(=O)NC(Cc1ccccc1)C(N)=O (centres undefined)
[5]
  logD: 0.05

## O=[N+]([O-])c1nccn1CCOc1ccc(I)cc1
[6]
  logD: 2.84

## CC1(C)CC(=O)NN1C=NNc1ccccc1
[7]
  logP: 0.26

## OC1(c2ccc(Cl)cc2)CCNCC1
[8]
  logP: 1.98

## O=C(O)CCCCc1ccccc1
[9]
  logD: 2.73

## Cn1c(C(=O)O)cnc1C(=O)c1ccc([N+](=O)[O-])cc1
[10]
  logD: 2.14

## CCCCCCCCn1sc(Cl)c(Cl)c1=O
[11]
  logP: 4.9

## c1ccc(Nc2ccccc2)cc1
[12]
  logD: 3.57

## CC(C)c1cccc(C(C)C)c1O
[13]
  logP: 3.63

## Cc1nc(C)c(C(=O)Nc2ccccc2)s1
[14]
  logP: 1.08

## CC(SSc1ncc[nH]1)c1ccccc1 (centres undefined)
[15]
  logD: 3.39

## CCC(C)c1ccccc1OC(=O)NC (centres undefined)
[16]
  logP: 2.8

## CC(C)Cn1cnc2c1c(=O)n(C)c(=O)n2C
[17]
  logD: 1.28

## CN1C2CCC1C(c1ccc(Cl)nc1)C2 (centres undefined)
[18]
  logD: 2.42

## CCCCCCc1ccccc1
[19]
  logP: 5.24

## CCNC(=O)C1C2CC3C(OC(=O)C31)C2O (centres undefined)
[20]
  logP: -0.35

## CC(=O)Nc1nc2c(ncn2COCCOC(C)=O)c(=O)[nH]1
[21]
  logP: -0.83

## Cc1[nH]c(=O)c(C#N)cc1-c1ccncc1
[22]
  logP: 0.42

## Cc1ccc2c(c1)C(=O)N(CCO[N+](=O)[O-])CO2
[23]
  logD: 2.41

## CCCS(=O)c1ccc2[nH]c(NC(=O)OC)nc2c1 (centres undefined)
[24]
  logD: 1.27

## CC(=O)Nc1ccn([C@@H]2O[C@H](CO)[C@@H](O)[C@@H]2O)c(=O)n1
[25]
  logP: -1.35

## c1cc2c3c(cccc3c1)CC2
[26]
  logP: 3.98

## C=CCOc1ccccc1OCC=C
[27]
  logP: 2.7

## CCc1c(C)nc2ccccn2c1=O
[28]
  logP: 1.58

## CCCOCCc1ccc(O)c(O)c1
[29]
  logP: 1.64

## O=C(c1ccncc1)c1ccc(Cl)cc1
[30]
  logP: 2.61

## CCCCOC(=O)COc1cc(Cl)c(Cl)cc1Cl
[31]
  logP: 4.81

## Clc1cc(Cl)c(Oc2ccccc2)cc1Cl
[32]
  logP: 5.44

## CC(=O)c1ccc(C(C)C)cc1
[33]
  logP: 2.98

## CCc1nc(N)nc(N)c1-c1ccc(Cl)c(Cl)c1
[34]
  logP: 3.19

## Clc1cccc(-c2ccccc2)c1
[35]
  logP: 4.71

## CNC(=S)NN=C(C)C(C)(C)C(C)=NNC(=S)NC
[36]
  logD: 2.51

## CC(C)(C)c1ccc(/C=N/NC(N)=S)cc1
[37]
  logP: 3.9

## c1ccc(CNc2ncnc3[nH]cnc23)cc1
[38]
  logP: 1.57

## Clc1cc(Cl)c(-c2c(Cl)c(Cl)c(Cl)c(Cl)c2Cl)c(Cl)c1Cl
[39]
  logP: 7.52

## COc1cc(C)nc(-n2nc(C)cc2OC)n1
[40]
  logD: 1.35

## O=C(O)c1cccc2ccccc12
[41]
  logP: 2.78

## CNC(=O)OC1OC(=O)C2C3C=CC(C3)C12 (centres undefined)
[42]
  logD: 0.63

## CC(C)NCC(O)c1ccc(Cl)c(Cl)c1 (centres undefined)
[43]
  logP: 3.32

## CCOC(=O)c1cccc(C(=O)OCC)n1
[44]
  logP: 3

## Nc1ccc(S(=O)(=O)Nc2cccc(Cl)c2Cl)cc1
[45]
  logP: 2.62

## CN(C)C1CC(C)(C)N(O)C(C)(C)C1
[46]
  logD: 1.13

## CC(=O)c1cc2ccccc2oc1=O
[47]
  logD: 1.5

## CC(C)[C@@H](N)Cc1ccccc1
[48]
  logD: 2.59
